Results reported in patent US9271962B2 (NORTHEASTERN UNIVERSITY, priority 2008, dated 2016).

Assays:
hMGL = target: T1, hMGL (Homo sapiens, UniProt Q99685); assay: Fluorescent enzyme assay, MGL (AHMMCE hydrolysis); assay type: biochemical; conditions: for inhibition at 0.01 µM: 10 nM inhibitor, read-out: % Inhibition of Enzyme by inhibitor, MGL, 10 nM; for inhibition at 0.01 µM / inhibition at 1 µM: screening assay; for inhibition at 1 µM: 1000 nM inhibitor; for inhibition at 100 µM: 100 uM inhibitor, printed in the 1000 nM column
T1 construct: A full-length cDNA clone of the human MGL transcript variant 1; made in house; host or cells: E. coli BL21 (DE3)
T1 sequence (Q99685 2-303 limits assumed): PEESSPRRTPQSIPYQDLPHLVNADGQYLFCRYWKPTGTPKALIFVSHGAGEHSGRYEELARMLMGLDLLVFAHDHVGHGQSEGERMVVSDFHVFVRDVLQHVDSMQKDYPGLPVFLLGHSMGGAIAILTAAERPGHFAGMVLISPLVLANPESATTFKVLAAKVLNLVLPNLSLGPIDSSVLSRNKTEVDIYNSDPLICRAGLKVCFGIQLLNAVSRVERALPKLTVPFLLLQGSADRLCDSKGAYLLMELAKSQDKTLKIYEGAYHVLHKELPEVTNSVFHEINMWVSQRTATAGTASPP
Procedure: (§1) Some analogs were tested for their FAAH/MGL inhibitory activity, which is expressed as % of inhibition (Tables 2, 3, and 4 below). The percentage of inhibition results from three-point assay (three concentrations of inhibitor are used) and it is less accurate (preliminary screening) than the IC50/Ki values that are determined from eight-point assay (eight different concentrations of inhibitor were used). The percentage of inhibition describes the percentage by which the inhibitor reduces the velocity/rate of AAMCA (arachidonoyl-7-amino-4-methylcoumarin amide) or AHMMCE (arachidonoyl-7-hydroxy-6-methoxy-4-methylcoumarin ester) hydrolysis by FAAH or MGL respectively. The IC50 is the concentration of the inhibitor, which results in 50% inhibition of the velocity/rate of AAMCA (arachidonoyl 7-amino-4-methylcoumarin amide) hydrolysis by FAAH or AHMMCE (Arachidonoyl, 7-hydroxy-6-methoxy-4-methylcoumarin ester) hydrolysis by MGL. The Ki value is the affinity constant and describes the ability of the compounds to inhibit the function of FAAH or MGL. The lower the IC50/Ki values, the higher the affinity of the inhibitor for the enzyme and the higher its inhibitory activity. A detailed description of the methods used to test inhibitory activity of compounds is given below.
A full-length cDNA clone of the human MGL transcript variant 1 (gi: 51242951) was obtained from OriGene Technologies (Rockville, Md.). The coding part of the MGL sequence (except the translation initiation codon ATG) was amplified by a polymerase chain reaction (PCR) using forward […] and reverse […] primers containing PmlI and SacI restriction enzyme recognition sites, respectively. iProof high-fidelity DNA polymerase (Bio-Rad, Hercules, Calif.) was used in the PCR amplification with 33 cycles, each consisting of denaturation at 94° C. for 10 s, annealing at 55° C. for 33 s, and extension at 72° C. for 1 min. The PCR product and pET45b vector were digested with PmlI and SacI restriction enzymes, and the vector was dephosphorylated with CIP followed by in-gel purification using the MinElute Gel Extraction Kit (Qiagen Corp., Valencia, Calif.). The fragment was inserted into the vector directly downstream after the 6 histidine and valine codons, generating the construct pET45His6hMGL for expression of hMGL containing an N-terminal His6-tag. GC10 E. coli cells were used for DNA transformation and plasmid propagation. Mini- and midi-scale plasmid DNA preparations were performed using a GenElute Plasmid Miniprep Kit (Sigma) and PureYield Plasmid Midiprep System (Promega, Madison, Wis.), respectively. In-frame vector-fragment junctions and the coding sequence of the recombinant gene were confirmed by sequencing. The pET45His6hMGL construct was transformed into BL21 (DE3) and Origami (DE3) E. coli expression strains (Novagen, Madison, Wis.).
A single E. coli BL21 (DE3) colony containing the pET45His6hMGL plasmid was inoculated into 12 mL of Luria broth-ampicillin medium and grown overnight with shaking (250 rpm) at 37° C. The next morning, 10 mL of this culture was inoculated into 1 L of fresh Luria broth-ampicillin and allowed to grow until culture turbidity reached an (OD)600 of 0.6-0.8, at which time expression from the T7 promoter was induced by adding isopropyl-β-D-thio-galactopyranoside (1 mM). After 5 h induction, the cells were harvested by centrifugation at 5,000 g for 10 min at 4° C., washed with PBS, and held at −80° C. Five grams (wet-weight) of cells were resuspended in 50 mL lysis buffer (100 mM NaCl; 50 mM Tris, pH 8.0) supplemented with Triton X-100 (0.5%), lysozyme (0.2 mg/mL), and DNase I (25 μg/ml) and disrupted on ice by three, one-min sonication cycles, each consisting of 1-sec sonication bursts at 50 W power separated from each other by a 2-sec interval (Vibra-Cell 500 W, Sonics, Newtown, Conn.). The cell lysate was centrifuged at 10,000 g for 30 min at 4° C. […]

ΔTM rFAAH = target: T2, ΔTM rFAAH (Rattus norvegicus, UniProt P97612); assay: Fluorescent enzyme assay, FAAH (AAMCA hydrolysis); assay type: biochemical; conditions: AAMCA substrate; for inhibition at 0.01 µM: 10 nM inhibitor; for inhibition at 0.01 µM / inhibition at 1 µM: screening assay; for inhibition at 1 µM: 1000 nM inhibitor
T2 construct: 15 ug of ΔTM rFAAH (cell lysate obtained by recombinant procedure); made in house
T2 sequence (P97612 30-579 limits assumed): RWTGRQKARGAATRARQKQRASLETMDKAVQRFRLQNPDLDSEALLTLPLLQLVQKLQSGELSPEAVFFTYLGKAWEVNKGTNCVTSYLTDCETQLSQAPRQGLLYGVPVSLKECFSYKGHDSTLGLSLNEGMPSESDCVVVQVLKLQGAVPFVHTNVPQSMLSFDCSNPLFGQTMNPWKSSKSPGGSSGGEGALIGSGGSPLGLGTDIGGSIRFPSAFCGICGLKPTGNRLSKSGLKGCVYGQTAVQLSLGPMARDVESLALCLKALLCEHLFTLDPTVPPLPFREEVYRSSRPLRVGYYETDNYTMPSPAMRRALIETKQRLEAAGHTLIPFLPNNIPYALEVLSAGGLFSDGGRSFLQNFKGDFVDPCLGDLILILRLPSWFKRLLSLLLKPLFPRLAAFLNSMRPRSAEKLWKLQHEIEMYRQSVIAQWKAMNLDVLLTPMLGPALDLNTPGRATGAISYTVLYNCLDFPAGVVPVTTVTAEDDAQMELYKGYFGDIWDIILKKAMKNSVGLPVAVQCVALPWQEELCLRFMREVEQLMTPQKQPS
Procedure: as §1
The enzyme (FAAH and MGL) assays were performed in 96 well plates (Coster #3650) in a total volume of 200 uL. Fluorogenic substrate AAMCA (arachidonoyl 7-amino-4-methylcoumarin amide) for FAAH and AHMMCE (arachidonoyl 7-hydroxy-6-methoxy-4-methylcoumarin ester) for MGL were used using BioTek Synergy HT Microplate Reader. Compounds and substrates were dissolved in DMSO provide a 10 mM stock solution and kept as a stock solution at −20° C. until used for assay. Stock solutions were thawed and reconstituted in 50:50 DMSO/assay buffer to a final DMSO concentration per well below 8%. This ensures that the compounds and substrate are in solution during assay. […] Appropriate substrate was added to adjust the final concentration in each well to 20 uM for FAAH (2× Km) and 10 uM for MGL (1×KM). Fluorescence readings were performed at λex=360/λem=460 for 4 h using Kinetic assay protocol at every 20 min (the fluorescent product coumarin produced is quantitated by this procedure). The readings at 3 h for FAAH and 2 h for MGL (linear maximum hydrolysis kinetics of enzyme on substrate) were used to calculate percent inhibition based on controls. Compounds which had more than 50 percent inhibition at 10 uM were selected for dose response study to determine IC50 values. The dose response at 8 concentration points was performed as with the screening assay except that compounds were serially diluted to 8 concentration points which were chosen based on IC50 value, which were calculated from the screening assay results. Assays are run twice in triplicates and Graphpad Prism software is used to plot inhibition data to obtain IC50 values.

inhibition at 0.01 µM (hMGL; AHMMCE substrate) | inhibition at 0.01 µM (ΔTM rFAAH) | Structure (SMILES) | also measured
64% | 86% | CN(C)C(=O)n1nnnc1Cc1ccc(I)cc1 [Compound 18b] | –
98% | 93% | CN(C)C(=O)n1nnc(Cc2ccc(C(F)(F)F)cc2)n1 [Compound 20a, N,N-dimethyl-5-[4-(trifluoromethyl)benzyl]-2H-tetrazole-2-carboxamide] | –
99% | 92% | CN(C)C(=O)n1nnc(Cc2ccc(OC(F)(F)F)cc2)n1 [Compound 19a] | –
98% | 91% | CSc1ccc(Cc2nnn(C(=O)N(C)C)n2)cc1 [Compound 23a] | –
99% | 93% | CN(C)C(=O)n1nnc(Cc2ccc(Cl)cc2Cl)n1 [Compound 17a, 5-(2,4-dichlorobenzyl)-N,N-dimethyl-2H-tetrazole-2-carboxamide] | –
6% | 90% | CN(C)C(=O)n1nnnc1Cc1ccc(C(F)(F)F)cc1 [Compound 20b] | –
97% | 93% | CN(C)C(=O)n1nnc(Cc2ccc(Cl)cc2)n1 [Compound 21a] | –

Continued, compound first:

Structure (SMILES) | inhibition at 0.01 µM (hMGL; AHMMCE substrate) | inhibition at 0.01 µM (ΔTM rFAAH) | also measured
O=C(N1CCOCC1)n1nnc(Cc2ccc(Cl)cc2Cl)n1 [Compound 6, 4-{[5-(2,4-dichlorobenzyl)-tetrazol-2-yl]carbonyl}morpholine] | 88% | 94% | –
CN(C)C(=O)n1cnc(-c2ccccc2)n1 [Compound 52, N,N-dimethyl-3-phenyl-1H-1,2,4-triazole-1-carboxamide] | 2% | – | inhibition at 1 µM (hMGL; AHMMCE substrate): 87%
CN(C)C(=O)n1cnnc1 [Compound 29, N,N-dimethyl-4H-1,2,4-triazole-4-carboxamide] | – | – | inhibition at 1 µM (hMGL; AHMMCE substrate): 79%; inhibition at 1 µM (ΔTM rFAAH): 92%
COc1ccc(Cc2nnnn2C(=O)N(C)C)cc1 [Compound 24b] | – | – | inhibition at 1 µM (hMGL; AHMMCE substrate): 96%; inhibition at 1 µM (ΔTM rFAAH): 100%
CN(C)C(=O)n1nnnc1CC(=O)c1ccccc1 [Compound 4, N,N-dimethyl-5-(2-oxo-2-phenylethyl)-1H-tetrazole-1-carboxamide] | 90% | 100% | –
CN(CCCCCl)C(=O)n1cnc(-c2ccccc2)n1 [Compound 53, N-(4-chlorobutyl)-N-methyl-3-phenyl-1H-1,2,4-triazole-1-carboxamide] | 13% | – | inhibition at 1 µM (hMGL; AHMMCE substrate): 71%; inhibition at 1 µM (ΔTM rFAAH): 100%
O=C(N(c1ccccc1)c1ccccc1)n1nnc(Cc2ccc(Cl)cc2Cl)n1 [Compound 8a, 5-(2,4-dichlorobenzyl)-N,N-diphenyl-2H-tetrazole-2-carboxamide] | – | – | inhibition at 1 µM (hMGL; AHMMCE substrate): 100%; IC50 (hMGL; eight-point dose response, AHMMCE substrate): 40 nM; inhibition at 1 µM (ΔTM rFAAH): 66%; IC50 (ΔTM rFAAH; eight-point dose response): 1300 nM
CN(C(=O)n1nnnc1Cc1ccc(Cl)cc1Cl)c1ccccc1 [Compound 7b] | 8% | 89% | –
CC(C)N(C(=O)n1nnc(Cc2ccc(Cl)cc2Cl)n1)C(C)C [Compound 10, 5-(2,4-dichlorobenzyl)-N,N-diisopropyl-tetrazole-2-carboxamide] | – | – | inhibition at 1 µM (hMGL; AHMMCE substrate): 11%; inhibition at 1 µM (ΔTM rFAAH): 94%
CN(C)C(=O)n1nnnc1Cc1ccccc1 [Compound 35, 5-benzyl-N,N-dimethyl-1H-tetrazole-1-carboxamide] | 41% | 81% | –
CCN(CC)C(=O)n1nnc(Cc2ccc(Cl)cc2Cl)n1 [Compound 9, 5-(2,4-dichlorobenzyl)-N,N-diethyl-tetrazole-2-carboxamide] | 43% | 95% | –
CN(C)S(=O)(=O)n1nnc(Cc2ccc(-c3ccccc3)cc2)n1 [Compound 38a] | – | – | inhibition at 1 µM (ΔTM rFAAH): 25%
CN(C)C(=O)n1nnc(Cc2ccc(-c3cccnc3)cc2)n1 [Compound 43, N,N-dimethyl-5-(4-(pyridin-3-yl)benzyl)-2H-tetrazole-2-carboxamide] | – | – | inhibition at 1 µM (ΔTM rFAAH): 34%
CN(C)C(=O)n1nnc(Cc2ccccc2Cl)n1 [Compound 45, 5-(2-chlorobenzyl)-N,N-dimethyl-2H-tetrazole-2-carboxamide] | 93% | – | –
O=C(N1CCN(Cc2ccc3ccccc3n2)CC1)n1nnc(Cc2ccc(Cl)cc2Cl)n1 [Compound 65, (5-(2,4-dichlorobenzyl)-2H-tetrazol-2-yl)(4-(quinolin-2-ylmethyl)piperazin-1-yl)methanone] | – | – | inhibition at 100 µM (hMGL): 68%
O=C(N1CCN(Cc2ccc3ccccc3n2)CC1)n1cnc(-c2ccccc2)c1 [Compound 64, (4-phenyl-1H-imidazol-1-yl)(4-(quinolin-2-ylmethyl)piperazin-1-yl)methanone] | – | – | inhibition at 100 µM (hMGL): 19%
CN(C)C(=O)n1nnc(C(F)(F)c2ccccc2)n1 [Compound 46, 5-(difluoro(phenyl)methyl)-N,N-dimethyl-2H-tetrazole-2-carboxamide] | 2% | – | inhibition at 1 µM (hMGL; AHMMCE substrate): 92%
